Measurements reported in ChEMBL document CHEMBL5038625, “Application of the dual-tail approach for the design and synthesis of novel Thiopyrimidine-Benzenesulfonamide hybrids as selective carbonic anhydrase inhibitors” (Eur J Med Chem, 2022).
pIC50, pKi: −log10 of the molar value.

Assays:
Carbonic anhydrase 1 = Carbonic anhydrase 1 (Homo sapiens, UniProt P00915); assay: Inhibition of human CA1 preincubated for 15 mins by phenol red dye based stopped flow CO2 hydration assay
Carbonic anhydrase 9 = Carbonic anhydrase 9 (Homo sapiens, UniProt Q16790); assay: Inhibition of human CA9 preincubated for 15 mins by phenol red dye based stopped flow CO2 hydration assay
SF-539 = assay: Antiproliferative activity against human SF-539 cells assessed as cell growth inhibition at 10 uM incubated for 24 hrs by sulforhodamine B assay; format: functional; conditions: read-out: GI
CCRF-CEM = assay: Antiproliferative activity against human CCRF-CEM cells assessed as cell growth inhibition at 10 uM incubated for 24 hrs by sulforhodamine B assay; format: functional; conditions: read-out: GI
K562 = assay: Antiproliferative activity against human K562 cells assessed as cell growth inhibition at 10 uM incubated for 24 hrs by sulforhodamine B assay; format: functional; conditions: read-out: GI
MOLT-4 = assay: Antiproliferative activity against human MOLT-4 cells assessed as cell growth inhibition at 10 uM incubated for 24 hrs by sulforhodamine B assay; format: functional; conditions: read-out: GI
SR = assay: Antiproliferative activity against human SR cells assessed as cell growth inhibition at 10 uM incubated for 24 hrs by sulforhodamine B assay; format: functional; conditions: read-out: GI
HOP-92 = assay: Antiproliferative activity against human HOP-92 cells assessed as cell growth inhibition at 10 uM incubated for 24 hrs by sulforhodamine B assay; format: functional; conditions: read-out: GI
NCI-H226 = assay: Antiproliferative activity against human NCI-H226 cells assessed as cell growth inhibition at 10 uM incubated for 24 hrs by sulforhodamine B assay; format: functional; conditions: read-out: GI
NCI-H23 = assay: Antiproliferative activity against human NCI-H23 cells assessed as cell growth inhibition at 10 uM incubated for 24 hrs by sulforhodamine B assay; format: functional; conditions: read-out: GI
HCT-116 = assay: Antiproliferative activity against human HCT-116 cells assessed as cell growth inhibition at 10 uM incubated for 24 hrs by sulforhodamine B assay; format: functional; conditions: read-out: GI
HCT-15 = assay: Antiproliferative activity against human HCT-15 cells assessed as cell growth inhibition at 10 uM incubated for 24 hrs by sulforhodamine B assay; format: functional; conditions: read-out: GI
LOX IMVI = assay: Antiproliferative activity against human LOX IMVI cells assessed as cell growth inhibition at 10 uM incubated for 24 hrs by sulforhodamine B assay; format: functional; conditions: read-out: GI
CAKI-1 = assay: Antiproliferative activity against human CAKI-1 cells assessed as cell growth inhibition at 10 uM incubated for 24 hrs by sulforhodamine B assay; format: functional; conditions: read-out: GI
RXF 393 = assay: Antiproliferative activity against human RXF 393 cells assessed as cell growth inhibition at 10 uM incubated for 24 hrs by sulforhodamine B assay; format: functional; conditions: read-out: GI
SN12C = assay: Antiproliferative activity against human SN12C cells assessed as cell growth inhibition at 10 uM incubated for 24 hrs by sulforhodamine B assay; format: functional; conditions: read-out: GI
UO-31 = assay: Antiproliferative activity against human UO-31 cells assessed as cell growth inhibition at 10 uM incubated for 24 hrs by sulforhodamine B assay; format: functional; conditions: read-out: GI
PC-3 = assay: Antiproliferative activity against human PC-3 cells assessed as cell growth inhibition at 10 uM incubated for 24 hrs by sulforhodamine B assay; format: functional; conditions: read-out: GI
MCF7 [1] = assay: Antiproliferative activity against human MCF7 cells assessed as cell growth inhibition at 10 uM incubated for 24 hrs by sulforhodamine B assay; format: functional; conditions: read-out: GI
T47D [2] = assay: Antiproliferative activity against human T47D cells assessed as cell growth inhibition at 10 uM incubated for 24 hrs by sulforhodamine B assay; format: functional; conditions: read-out: GI
MCF7 [3] = assay: Antiproliferative activity against human MCF7 cells assessed as reduction in cell viability incubated for 24 hrs by sulforhodamine B assay; format: functional, cell-based; conditions: MCF7, 24 h
T47D [4] = assay: Antiproliferative activity against human T47D cells assessed as reduction in cell viability incubated for 24 hrs by sulforhodamine B assay; format: functional, cell-based
MDA-MB-231 [5] = assay: Antiproliferative activity against human MDA-MB-231 cells assessed as reduction in cell viability incubated for 24 hrs by sulforhodamine B assay; format: functional, cell-based; conditions: MDA-MB-231, 24 h
MDA-MB-231 [6] = assay: Antiproliferative activity against human MDA-MB-231 cells assessed as cell growth inhibition at 10 uM incubated for 24 hrs by sulforhodamine B assay; format: functional; conditions: read-out: GI
Carbonic anhydrase 2 = Carbonic anhydrase 2 (Homo sapiens, UniProt P00918); assay: Inhibition of human CA2 preincubated for 15 mins by phenol red dye based stopped flow CO2 hydration assay
RPMI-8226 = assay: Antiproliferative activity against human RPMI-8226 cells assessed as cell growth inhibition at 10 uM incubated for 24 hrs by sulforhodamine B assay; format: functional; conditions: read-out: GI
A549 = assay: Antiproliferative activity against human A549 cells assessed as cell growth inhibition at 10 uM incubated for 24 hrs by sulforhodamine B assay; format: functional; conditions: read-out: GI
NCI-H522 = assay: Antiproliferative activity against human NCI-H522 cells assessed as cell growth inhibition at 10 uM incubated for 24 hrs by sulforhodamine B assay; format: functional; conditions: read-out: GI
KM12 = assay: Antiproliferative activity against human KM12 cells assessed as cell growth inhibition at 10 uM incubated for 24 hrs by sulforhodamine B assay; format: functional; conditions: read-out: GI
SNB-75 = assay: Antiproliferative activity against human SNB-75 cells assessed as cell growth inhibition at 10 uM incubated for 24 hrs by sulforhodamine B assay; format: functional; conditions: read-out: GI
U-251 = assay: Antiproliferative activity against human U-251 cells assessed as cell growth inhibition at 10 uM incubated for 24 hrs by sulforhodamine B assay; format: functional; conditions: read-out: GI
Malme-3M = assay: Antiproliferative activity against human Malme-3M cells assessed as cell growth inhibition at 10 uM incubated for 24 hrs by sulforhodamine B assay; format: functional; conditions: read-out: GI
UACC-62 = assay: Antiproliferative activity against human UACC-62 cells assessed as cell growth inhibition at 10 uM incubated for 24 hrs by sulforhodamine B assay; format: functional; conditions: read-out: GI
OVCAR-4 = assay: Antiproliferative activity against human OVCAR-4 cells assessed as cell growth inhibition at 10 uM incubated for 24 hrs by sulforhodamine B assay; format: functional; conditions: read-out: GI
HL-60 = assay: Antiproliferative activity against human HL-60 cells assessed as cell growth inhibition at 10 uM incubated for 24 hrs by sulforhodamine B assay; format: functional; conditions: read-out: GI
SNB-19 = assay: Antiproliferative activity against human SNB-19 cells assessed as cell growth inhibition at 10 uM incubated for 24 hrs by sulforhodamine B assay; format: functional; conditions: read-out: GI
ACHN = assay: Antiproliferative activity against human ACHN cells assessed as cell growth inhibition at 10 uM incubated for 24 hrs by sulforhodamine B assay; format: functional; conditions: read-out: GI
MDA-MB-468 = assay: Antiproliferative activity against human MDA-MB-468 cells assessed as cell growth inhibition at 10 uM incubated for 24 hrs by sulforhodamine B assay; format: functional; conditions: read-out: GI

Sequence of Carbonic anhydrase 1 (P00915 whole entry): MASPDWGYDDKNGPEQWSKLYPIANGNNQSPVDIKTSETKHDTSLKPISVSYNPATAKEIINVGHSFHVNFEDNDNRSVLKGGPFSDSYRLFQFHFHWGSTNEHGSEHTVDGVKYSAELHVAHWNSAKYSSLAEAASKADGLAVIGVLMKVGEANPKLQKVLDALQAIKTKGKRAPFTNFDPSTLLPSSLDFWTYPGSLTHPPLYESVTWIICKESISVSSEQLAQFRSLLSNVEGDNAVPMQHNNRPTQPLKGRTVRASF

SMILES	pKi (Carbonic anhydrase 1)	pKi (Carbonic anhydrase 9)	inhibition of growth at 10 µM (SF-539)	inhibition of growth at 10 µM (CCRF-CEM)	inhibition of growth at 10 µM (K562)	inhibition of growth at 10 µM (MOLT-4)	inhibition of growth at 10 µM (SR)	inhibition of growth at 10 µM (HOP-92)	inhibition of growth at 10 µM (NCI-H23)	inhibition of growth at 10 µM (HCT-15)	inhibition of growth at 10 µM (CAKI-1)	inhibition of growth at 10 µM (RXF 393)	inhibition of growth at 10 µM (UO-31)	inhibition of growth at 10 µM (PC-3)	inhibition of growth at 10 µM (MCF7 [1])	inhibition of growth at 10 µM (T47D [2])	pKi (Carbonic anhydrase 2)	further results
COc1ccc(C(=O)CSc2nc(Nc3ccc(S(N)(=O)=O)cc3)c(C#N)c(-c3cc(OC)ccc3OC)n2)cc1	< 4.70	5.05																
Cc1ccc(-c2nc(SCC(=O)c3ccc(Br)cc3)nc(Nc3cccc(S(N)(=O)=O)c3)c2C#N)cc1		7.05	17.5%	6.1%	6.32%	9.7%	11.3%	67.2%	7.38%	5.65%	20%	17.6%	36.7%	13.4%	7.76%	6.01%		inhibition of growth at 10 µM (NCI-H226): 12.7%; inhibition of growth at 10 µM (HCT-116): 8.06%; inhibition of growth at 10 µM (LOX IMVI): 11.8%; inhibition of growth at 10 µM (SN12C): 5.02%; pIC50 (MCF7 [3]): < 4.00; pIC50 (T47D [4]): 4.22; pIC50 (MDA-MB-231 [5]): < 4.00; inhibition of growth at 10 µM (MDA-MB-231 [6]): 6.75%
Cc1ccc(-c2nc(SCC(=O)c3ccccc3)nc(Nc3cccc(S(N)(=O)=O)c3)c2C#N)cc1	< 4.70	5.12	14.1%				7.6%	65.2%	5.21%	5.35%	13.6%	12.6%	24.4%	6.2%	11.9%		< 4.70	inhibition of growth at 10 µM (LOX IMVI): 11.3%
COc1ccc(C(=O)CSc2nc(Nc3cccc(S(N)(=O)=O)c3)cc(-c3ccccc3)n2)cc1	< 4.70	6.52		16.9%	12.7%	26.2%	23.7%			13.8%	7.16%		16.4%	15.8%		20.2%	< 4.70	inhibition of growth at 10 µM (RPMI-8226): 6.7%; inhibition of growth at 10 µM (A549): 7.98%; inhibition of growth at 10 µM (NCI-H522): 6.62%; inhibition of growth at 10 µM (KM12): 6.88%; inhibition of growth at 10 µM (SNB-75): 12.3%; inhibition of growth at 10 µM (U-251): 6.41%; inhibition of growth at 10 µM (Malme-3M): 7.42%; inhibition of growth at 10 µM (UACC-62): 8.31%; inhibition of growth at 10 µM (OVCAR-4): 12.2%; pIC50 (MCF7 [3]): 4.51; pIC50 (T47D [4]): 4.55; pIC50 (MDA-MB-231 [5]): 4.37; inhibition of growth at 10 µM (MDA-MB-231 [6]): 6.45%
COc1ccc(C(=O)CSc2nc(Nc3cccc(S(N)(=O)=O)c3)c(C#N)c(-c3ccc(C)cc3)n2)cc1		6.06																
COc1ccc(OC)c(-c2nc(SCC(=O)c3ccccc3)nc(Nc3cccc(S(N)(=O)=O)c3)c2C#N)c1		5.30															< 4.70	
COc1ccc(C(=O)CSc2nc(Nc3cccc(S(N)(=O)=O)c3)c(C#N)c(C(C)C)n2)cc1		7.02	7.32%	6.87%	18.5%	13.4%	11%	11.6%	11%	6.79%	10.8%	10.2%	20.4%	7.35%	12.9%	14.2%	< 4.70	inhibition of growth at 10 µM (HL-60): 6.4%; inhibition of growth at 10 µM (RPMI-8226): 5.91%; inhibition of growth at 10 µM (NCI-H522): 6.43%; inhibition of growth at 10 µM (SNB-19): 5.74%; inhibition of growth at 10 µM (UACC-62): 11.6%; inhibition of growth at 10 µM (ACHN): 6.14%; inhibition of growth at 10 µM (MDA-MB-468): 8.74%
